Assay results published in publication PMC5374420, “In Search of Small Molecule Inhibitors Targeting the Flexible CK2 Subunit Interface” (Pharmaceuticals, 2017).
Where a SMILES comes first, the peptide text is derived from it. Bridges are numbered along the chain shown (N, C = ends). The star is where a group is joined. Cbz = O=C(OCc1ccccc1)*; CH2F = FC*

Legend:
[1] = test system: p21 Thr145 phosphorylation, survivin expression, AKT activation; assay: Western blot of intracellular events (AKT, phospho-p21 Thr145, survivin); format: cell-based; conditions: 786-O cells, 12 h, increasing concentrations of CX-4945 (Figure S1)
Experimental: This was confirmed using the LIVE&DEAD^TM cell viability assay that provides a visual readout of cell integrity (Figure 8A lower panel). This cellular effect was also analyzed after treatment of WT or CK2β-depleted MCF-10A cells with increasing concentrations of TAT-Pc 13. TAT-Pc 13 caused a cell death in both cell types, which was already detectable at a concentration of 25 µM and became massive at 50–60 µM (Figure 8B). […] In order to investigate the intracellular events induced by TAT-Pc 13, MCF-10A cells were incubated with increasing concentrations of TAT-Pc 13 and analyzed by Western blot.
Figure 8 Cellular effects of TAT-Pc 13. (A) MCF-10A cells were incubated with 25 µM of TAT-Pc 13 for 3 h and imaged with phase microscopy (upper panel) or with increasing concentrations of TAT-Pc 13 for 2 h and cell viability was evaluated using the LIVE&DEAD™ assay. Live cells fluoresce bright green (530 nm), whereas dead cells fluoresce red-orange (645 nm) (lower panel, scale bare: 100 µm); (B) WT (○-○) or CK2β-depleted (●-●) MCF-10A cells were incubated for 4 h with increasing concentrations of TAT-Pc 13 and cell death was evaluated using the LIVE&DEAD™ assay recording fluorescence at 645 nm. Representative data shown from two independent experiments in duplicate; (C) MCF-10A cells were pre-treated in the absence or presence of 20 µM z-VAD for 5 h and then incubated for 4 h with 25 µM random TAT-Pc 13 or TAT-Pc 13 and cell viability was evaluated as in (A) (scale bare: 100 µm); and (D) intracellular events induced by increasing concentrations of TAT-Pc 13. After 12 h of treatment, 786-O cells were lysed and analyzed by Western blot. TEXT PRINTED IN THE PICTURE: (B) TAT-Pc 13: TAT-Pc 13 (μM): 48; TAT-Pc 13 (μM): 60 DOUBTS OF THE COPYIST ABOUT THIS PICTURE: Panel B: 48 and 60 are printed in red at the x axis, where dashed lines drop from the two curves at about 50 on the Cell death (%) axis. No measure name (e.g. IC50) is printed with them. […]

[2] = molecular target: T1, CK2 holoenzyme (Homo sapiens, UniProt P68400); assay: CK2 kinase assay with CK2β-dependent eIF2β-derived peptide substrate; format: biochemical; conditions: result in words
T1 construct: made in house
Excerpt: In a previous study, we used the X-ray structure of CK2β in the holoenzyme complex as a template for the design of a conformationally constrained 13-mer peptide (Pc 13) derived from the CK2β C-terminal domain and centred around the Tyr188 and Phe190 hotspots. Pc 13 is an eight-residue peptide (Arg186–His193) that contains a cluster of hydrophobic residues (Leu187, Tyr188 and Ile192) and three additional glycine residues, cyclized via two cysteine residues to ‘staple’ its conformation and to mimic the binding face of CK2β with CK2α [15]. […]
Figure 2 CK2β-derived cyclic peptides inhibit CK2 activity in vitro. […] Phosphorylated proteins were separated by SDS/PAGE (Sodium dodecylsulfate/ Polyacrylamide gel electrophoresis) and analyzed by autoradiography. […]
Figure 4 Inhibitory activity of a TAT-Pc analogue in vitro. […] CK2 activity was then determined with CK2β-dependent or independent peptide substrates; (B) [^35S]-labeled CK2α was incubated with biotinylated MBP-CK2β immobilized on streptavidin coated plates (preformed complex) in the absence (1) or presence (2) of TAT-Pc 13. […] After washing, the amount of [^35S]-labeled CK2α remaining in the complex was determined by radioactivity counting. […]

[3] = molecular target: T2, CK2 holoenzyme (CK2α + CK2β) (Homo sapiens, UniProt P68400); assay: CK2-mediated phosphorylation of GST-Olig2 and of CK2β (autoradiography); format: biochemical; conditions: 25 µM peptide
T2 construct: made in house
Experimental: Figure 2 CK2β-derived cyclic peptides inhibit CK2 activity in vitro. (A) a series of cyclized CK2β-derived peptide analogues varying in length from eight to 11 amino acids were tested for their effect on the phosphorylation of eIF2β-derived peptide substrate whose phosphorylation relies on the holoenzyme formation. Representative data shown from two independent experiments; (B) structure of Pc 11 (CC); (C) antagonist effect of Pc 11 (CC) on CK2-mediated phosphorylation of the CK2β-dependent substrate Olig2. CK2α was incubated alone or with CK2β in the absence or presence of 25 µM random Pc 11 (CC) or Pc 11 (CC) for 15 min at 4 °C, followed by the addition of GST (Gluthatione S-Transferase)-Olig2 (5 μg) and 25 μM [γ-^32P]ATP/MgCl2 for 5 min at room temperature. Phosphorylated proteins were separated by SDS/PAGE (Sodium dodecylsulfate/ Polyacrylamide gel electrophoresis) and analyzed by autoradiography. The gel was stained with coomassie blue to visualize GST-Olig2. TEXT PRINTED IN THE PICTURE: (A) no label printed: IC50 = 1-3 μM DOUBTS OF THE COPYIST ABOUT THIS PICTURE: Panel A: "IC50 = 1-3 μM" is printed once inside the plot, near the falling curves, and is not tied to any one peptide.

[4] = test system: WT MCF-10A cells; assay: Cell death / viability, LIVE&DEAD assay, WT cells; format: cell-based; conditions: MCF-10A; 20 µM z-VAD or 30 µM Necrostatin-1 for 5 h, then 25 µM TAT-Pc 13 for 4 h
Experimental: Figure 8 Cellular effects of TAT-Pc 13. (A) MCF-10A cells were incubated with 25 µM of TAT-Pc 13 for 3 h and imaged with phase microscopy (upper panel) or with increasing concentrations of TAT-Pc 13 for 2 h and cell viability was evaluated using the LIVE&DEAD™ assay. Live cells fluoresce bright green (530 nm), whereas dead cells fluoresce red-orange (645 nm) (lower panel, scale bare: 100 µm); (B) WT (○-○) or CK2β-depleted (●-●) MCF-10A cells were incubated for 4 h with increasing concentrations of TAT-Pc 13 and cell death was evaluated using the LIVE&DEAD™ assay recording fluorescence at 645 nm. Representative data shown from two independent experiments in duplicate; (C) MCF-10A cells were pre-treated in the absence or presence of 20 µM z-VAD for 5 h and then incubated for 4 h with 25 µM random TAT-Pc 13 or TAT-Pc 13 and cell viability was evaluated as in (A) (scale bare: 100 µm); and (D) intracellular events induced by increasing concentrations of TAT-Pc 13. After 12 h of treatment, 786-O cells were lysed and analyzed by Western blot. TEXT PRINTED IN THE PICTURE: (B) TAT-Pc 13: TAT-Pc 13 (μM): 48; TAT-Pc 13 (μM): 60 DOUBTS OF THE COPYIST ABOUT THIS PICTURE: Panel B: 48 and 60 are printed in red at the x axis, where dashed lines drop from the two curves at about 50 on the Cell death (%) axis. No measure name (e.g. IC50) is printed with them.
Cells were seeded in 96-well microtiter plates at a concentration of 1 × 10^5 cells/mL and were allowed to attach for 24 h at 37 °C in 5% CO2. Cells were then exposed to different concentrations of TAT-Pc 13 for the indicated time. Cell viability was evaluated using the fluorescence-based LIVE&DEAD™ assay (Molecular Probes, Thermo Fisher Scientific, Courtaboeuf, France) according to the manufacturer. Images were taken with an Apotome-equipped Zeiss Axioimager microscope (Zeiss, Oberkochen, German) recording the fluorescence at 530 nm (Live cells) and 645 nm (dead cells) respectively using a FluoStar Optima plate reader (BMG LabTech, Ortenberg, Germany).

T2 sequence (P68400 whole entry): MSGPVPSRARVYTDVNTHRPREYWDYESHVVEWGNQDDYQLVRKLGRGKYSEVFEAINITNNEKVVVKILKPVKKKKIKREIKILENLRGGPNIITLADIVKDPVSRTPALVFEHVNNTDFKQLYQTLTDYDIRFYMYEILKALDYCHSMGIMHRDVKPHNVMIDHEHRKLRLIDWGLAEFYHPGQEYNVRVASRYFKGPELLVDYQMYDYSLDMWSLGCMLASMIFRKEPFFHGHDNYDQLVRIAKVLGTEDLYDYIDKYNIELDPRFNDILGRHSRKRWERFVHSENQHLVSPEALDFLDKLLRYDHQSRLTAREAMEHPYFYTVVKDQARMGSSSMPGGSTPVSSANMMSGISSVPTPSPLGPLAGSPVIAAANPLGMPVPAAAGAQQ
T1 sequence (P68400 whole entry): as above

## O=C(O)c1ccc2c(c1)nc(Nc1cccc(Cl)c1)c1ccncc12 [CX-4945, 5-(3-chlorophenylamino)benzo[c][2,6]naphthyridine-8-carboxylic acid, reference compound]
[1]
  phosphorylation of p21: strongly inhibited

## CC(C)C[C@@H]1NC(=O)[C@H](CCCNC(=N)N)NC(=O)[C@@H](N)CSSC[C@@H](C(=O)O)NC(=O)[C@H](CCCCN)NC(=O)[C@H](Cc2ccccc2)NC(=O)CNC(=O)[C@H](Cc2ccc(O)cc2)NC1=O [Pc 8 (CC)] (H-CRLYGFKC-OH; disulfide 1-8)
[2]
  effect on phosphorylation of eIF2β peptide substrate: inactive

## CC[C@H](C)[C@@H]1NC(=O)[C@H](CCCCN)NC(=O)[C@H](Cc2ccccc2)NC(=O)CNC(=O)[C@H](Cc2ccc(O)cc2)NC(=O)[C@H](CC(C)C)NC(=O)[C@H](CCCNC(=N)N)NC(=O)[C@@H](N)CSSC[C@@H](C(=O)O)NC(=O)CNC(=O)[C@H](Cc2c[nH]cn2)NC1=O [Pc 11 (CC)] (H-CRLYGFKIHGC-OH; disulfide 1-11)
[3]
  phosphorylation of CK2β in the holoenzyme: significantly affected
[3]; 15 min at 4 °C, then GST-Olig2 and 25 μM ATP for 5 min at room temperature
  Olig-2 phosphorylation: strong decrease

## COC(=O)C[C@H](NC(=O)[C@H](C)NC(=O)[C@@H](NC(=O)OCc1ccccc1)C(C)C)C(=O)CF [z-VAD-FMK, reference compound] (Cbz-Val-Ala-Asp(OMe)-CH2F)
[4]
  effect of inhibitor pre-treatment on TAT-Pc 13-induced cell death: insensitive

## CN1C(=O)C(Cc2c[nH]c3ccccc23)NC1=S (stereo not drawn) [Necrostatin-1, reference compound]
[4]
  effect of inhibitor pre-treatment on TAT-Pc 13-induced cell death: prevented
